Results on 14 molecules are retold here after PubChem BioAssay (NCI).

SMILES strings stand for the structures. Values joined by “and” are separate entries in the source; they are usually repeats but may differ in a detail not shown here. Equal entries are not always repeated.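 The compound was tested at five concentrations on cells cultured in 96-well plates, with a 48-hour exposure period. The concentration for 50% growth inhibition is given as GI50. The concentration for full growth arrest is given as TGI.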

Test systems include OVCAR-3 ovarian; HOP-62 NSCLC; HCT-15 colon; SF-268 CNS; SNB-19 CNS; CAKI-1 renal; SN12C renal; CCRF-CEM leukemia; HOP-92 NSCLC; A549 NSCLC.
What all share (experiment): inhibition of tumour cell growth, NCI panel, 48 h

As to `C(/C=C/c1ccccc1)=Nc1ccc2c(c1)Cc1ccccc1-2`, the TGI in the experiment on OVCAR-3 ovarian, in the experiment with HOP-62 NSCLC, in the experiment on HCT-15 colon, in the experiment on SF-268 CNS, with SNB-19 CNS and in the experiment on CAKI-1 renal was more than 100 µM each time. For the same molecule, the TGI in the experiment with SN12C renal, in the experiment with CCRF-CEM leukemia, in the experiment on HOP-92 NSCLC and with A549 NSCLC was more than 100 µM throughout.

For `CC(=O)N1N=C(c2ccc3ccccc3c2O)CC1c1cccs1` (stereo not drawn), the TGI with OVCAR-3 ovarian, with HOP-62 NSCLC, in the experiment on HCT-15 colon, in the experiment with SF-268 CNS, in the experiment with CAKI-1 renal and in the experiment with SN12C renal was more than 100 µM in each case. For the same molecule, the TGI with CCRF-CEM leukemia is more than 100 µM; in the experiment on HOP-92 NSCLC, more than 100 µM; with A549 NSCLC it was 94.9 µM.

Turning to `COc1cc(C2S/C(=C/c3ccccc3)C(=O)N2c2ccc(NC(C)=O)cc2)cc(OC)c1OC` (stereo not drawn), the TGI in the experiment with HOP-62 NSCLC was more than 100 µM; in the experiment on HCT-15 colon it was 46.7 µM; in the experiment on SF-268 CNS it was 83.3 µM; in the experiment with SNB-19 CNS it was more than 100 µM; with CAKI-1 renal, 72.4 µM; with SN12C renal, 60.3 µM. The TGI in the experiment on CCRF-CEM leukemia was 20.4 µM; in the experiment on HOP-92 NSCLC, 83.6 µM; with A549 NSCLC, more than 100 µM.

In the case of `NC(=S)N/N=C/c1nccc2ccccc12`, the TGI is more than 100 µM in the experiment on HOP-62 NSCLC; more than 100 µM in the experiment with HCT-15 colon; 4.04 µM in the experiment with SF-268 CNS; 32.7 µM in the experiment with SNB-19 CNS; 58.7 µM with CAKI-1 renal; more than 100 µM in the experiment with SN12C renal. The TGI with HOP-92 NSCLC and in the experiment with A549 NSCLC was more than 100 µM throughout.

`NC(CSCc1ccc(I)cc1)C(=O)O` (stereo not drawn): the TGI in the experiment on OVCAR-3 ovarian, with HOP-62 NSCLC, in the experiment on HCT-15 colon, with SF-268 CNS, with SNB-19 CNS and with CAKI-1 renal was more than 100 µM in each case. Also, the TGI in the experiment on SN12C renal, with CCRF-CEM leukemia, in the experiment on HOP-92 NSCLC and with A549 NSCLC was more than 100 µM throughout.

In the case of `Cc1nc2c(c(=O)[nH]1)S/C(=C(/C#N)c1nc3ccccc3[nH]1)N2c1ccccc1`, the TGI with OVCAR-3 ovarian, with HOP-62 NSCLC, with HCT-15 colon, in the experiment with SF-268 CNS, in the experiment with SNB-19 CNS and in the experiment on CAKI-1 renal was more than 100 µM in each case. Besides, the TGI with SN12C renal, in the experiment with CCRF-CEM leukemia, with HOP-92 NSCLC and in the experiment on A549 NSCLC was more than 100 µM in each case.

Regarding `c1ccc(N2N=C(c3cccc(Nc4ccncc4)c3)CC2c2ccc3c(c2)OCO3)cc1` (stereo not drawn), the GI50 in the experiment with OVCAR-3 ovarian is 1.48 µM; in the experiment on HCT-15 colon it was 1.49 µM; with SF-268 CNS, 1.79 µM; in the experiment with SNB-19 CNS it was 2.2 µM; in the experiment on CAKI-1 renal it was 1.3 µM; in the experiment on SN12C renal, 1.71 µM. Moreover, the results for the GI50 in the experiment on CCRF-CEM leukemia and in the experiment with HOP-92 NSCLC were 1.78 µM and 1.1 µM, respectively. The TGI in the experiment on OVCAR-3 ovarian turned out to be 2.92 µM; in the experiment with HCT-15 colon, 3.38 µM; with SF-268 CNS, 3.75 µM; in the experiment with SNB-19 CNS, 6.67 µM; in the experiment on CAKI-1 renal, 2.69 µM; in the experiment with SN12C renal it was 3.25 µM. Further, the TGI in the experiment with CCRF-CEM leukemia came out at 7.85 µM; in the experiment on HOP-92 NSCLC it was 2.47 µM.

As for `O=C1C(Cl)N(c2cccc(Cl)c2)C1c1c[nH]c2ccccc12` (stereo not drawn), the TGI in the experiment on OVCAR-3 ovarian, in the experiment with HOP-62 NSCLC, with SF-268 CNS, in the experiment on SNB-19 CNS, in the experiment with SN12C renal and with CCRF-CEM leukemia was more than 100 µM each time. Moreover, the TGI in the experiment with HOP-92 NSCLC and with A549 NSCLC was more than 100 µM in each case.

On to `CC[C@@H]1ON(C)[C@H]2CN(C)C(=O)[C@@H]12`, for which the TGI with OVCAR-3 ovarian, in the experiment on HOP-62 NSCLC, in the experiment with HCT-15 colon, in the experiment with SNB-19 CNS, in the experiment on CAKI-1 renal and in the experiment with SN12C renal was more than 100 µM in each case. For the same molecule, the TGI in the experiment on CCRF-CEM leukemia, with HOP-92 NSCLC and in the experiment with A549 NSCLC was more than 100 µM each time.

Turning to `Nc1ccccc1Nc1ccccc1C(=O)[O-].Nc1ccccc1Nc1ccccc1C(=O)[O-].[Zn+2]`, the TGI in the experiment on OVCAR-3 ovarian is 61 µM; in the experiment on HOP-62 NSCLC, more than 100 µM; with HCT-15 colon it was more than 100 µM; in the experiment with SF-268 CNS it was more than 100 µM; with SNB-19 CNS, more than 100 µM; in the experiment with CAKI-1 renal, more than 100 µM. In addition, the TGI in the experiment with SN12C renal, in the experiment on CCRF-CEM leukemia and in the experiment with A549 NSCLC was more than 100 µM each time.

In the case of `COc1ccc(-c2csc(=Nc3ccccc3)n2CCCN(C)C)cc1`, the TGI in the experiment on OVCAR-3 ovarian was 37.5 µM; in the experiment with HOP-62 NSCLC it was 28.3 µM; in the experiment on HCT-15 colon, more than 100 µM; in the experiment on SF-268 CNS, 56.4 µM; with SNB-19 CNS, 48.1 µM; with CAKI-1 renal it was more than 100 µM. Further, the TGI in the experiment with SN12C renal was more than 100 µM; with CCRF-CEM leukemia it was more than 100 µM; with HOP-92 NSCLC, more than 100 µM; in the experiment on A549 NSCLC it was 36.3 µM.

Take `COc1cc([C@@H]2c3cc4c(c(O)c3C[C@H]3COC(=O)[C@@H]32)OCO4)cc(OC)c1OC`: the GI50 in the experiment with OVCAR-3 ovarian is 0.089 µM; in the experiment with HOP-62 NSCLC it was 0.249 µM; in the experiment with HCT-15 colon, 0.19 µM; in the experiment on SF-268 CNS, 0.501 µM; with SNB-19 CNS it was 0.114 µM; with CAKI-1 renal, 0.222 µM. Besides, the GI50 in the experiment with SN12C renal is 0.581 µM; with CCRF-CEM leukemia, 0.374 µM; with HOP-92 NSCLC, 8.17 µM; in the experiment with A549 NSCLC, 0.274 µM. The TGI in the experiment with HOP-62 NSCLC is 57.9 µM and 218 µM and > 100 µM; with CCRF-CEM leukemia it was 94.3 µM and > 241 µM and > 100 µM.

Regarding `C=C(C)C(=O)O[C@H]1CC2=C[C@@H](C[C@@]3(C)O[C@@H]3[C@H]3OC(=O)C(=C)[C@@H]31)OC2=O`, the TGI in the experiment on OVCAR-3 ovarian was 3.74 µM; with HOP-62 NSCLC, 98.9 µM; in the experiment on HCT-15 colon, 2.72 µM; in the experiment on SF-268 CNS, 2.56 µM; in the experiment on SNB-19 CNS, 49.1 µM; in the experiment on CAKI-1 renal it was 6.25 µM. Moreover, the TGI in the experiment with SN12C renal is 8.02 µM; in the experiment on CCRF-CEM leukemia it was 300 µM; in the experiment on HOP-92 NSCLC, 2.78 µM; in the experiment on A549 NSCLC, 27.1 µM. Also, the GI50 in the experiment with HCT-15 colon is 0.773 µM; in the experiment with SF-268 CNS, 0.34 µM; in the experiment on CAKI-1 renal, 2.63 µM; in the experiment on CCRF-CEM leukemia it was 1.18 µM.

In the case of `CCOC1=NC(C(F)(F)F)(C(F)(F)F)N=C(N2CCOCC2)O1`, the TGI with OVCAR-3 ovarian, in the experiment with HCT-15 colon, in the experiment on SF-268 CNS, in the experiment on SNB-19 CNS, in the experiment with CAKI-1 renal and in the experiment with SN12C renal was more than 100 µM in each case. Besides, the TGI with CCRF-CEM leukemia, with HOP-92 NSCLC and with A549 NSCLC was more than 100 µM each time.
